In PubChem BioAssay (NCI):
Where “and” joins values, the source holds several entries; their conditions need not be identical. Equal entries are not always repeated.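 Results reflect a 48-hour exposure of cells in 96-well plates to compound at five concentrations. Here, GI50 denotes the concentration required for 50% inhibition of growth. TGI is the concentration that stops growth completely.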

Assays:
Experiment in all cases: NCI anticancer screen, dose series, 48 h
NCI-H460 lung = test system: NCI-H460 lung
SNB-19 CNS = test system: SNB-19 CNS
IGROV1 ovarian = test system: IGROV1 ovarian
HT29 colon = test system: HT29 colon
SK-MEL-2 melanoma = test system: SK-MEL-2 melanoma
NCI-H522 lung = test system: NCI-H522 lung
CCRF-CEM leukemia = test system: CCRF-CEM leukemia
MALME-3M melanoma = test system: MALME-3M melanoma
SK-OV-3 ovarian = test system: SK-OV-3 ovarian
SNB-75 CNS = test system: SNB-75 CNS

| SMILES | GI50 (NCI-H460 lung) [µM] | TGI (NCI-H460 lung) [µM] | GI50 (SNB-19 CNS) [µM] | TGI (SNB-19 CNS) [µM] | GI50 (IGROV1 ovarian) [µM] | TGI (IGROV1 ovarian) [µM] | GI50 (HT29 colon) [µM] | TGI (HT29 colon) [µM] | GI50 (SK-MEL-2 melanoma) [µM] | TGI (SK-MEL-2 melanoma) [µM] | GI50 (NCI-H522 lung) [µM] | TGI (NCI-H522 lung) [µM] | GI50 (CCRF-CEM leukemia) [µM] | TGI (CCRF-CEM leukemia) [µM] | GI50 (MALME-3M melanoma) [µM] | TGI (MALME-3M melanoma) [µM] | GI50 (SK-OV-3 ovarian) [µM] | TGI (SK-OV-3 ovarian) | GI50 (SNB-75 CNS) [µM] | TGI (SNB-75 CNS) [µM] |
| --- | --- | --- | --- | --- | --- | --- | --- | --- | --- | --- | --- | --- | --- | --- | --- | --- | --- | --- | --- | --- |
| CN1CCN(Cc2ccc(NC(=O)c3cccc(C#Cc4c(N)ncc5ccc(F)cc45)c3)cc2C(F)(F)F)CC1 | 0.885 | 1.72 | 0.916 | 1.65 | 0.597 | 1.4 | 0.391 | 1.87 | 0.923 | 2.09 | 0.756 | 1.53 | 0.989 | 2.58 | 0.569 | 1.35 | 1.19 | 2.99 µM | 0.257 | 0.866 |
| CCCCCN(CCCCC)C(=O)[C@H](CCC(=O)OCc1ccccc1)NC(=O)c1cc2ccccc2[nH]1 |  | > 100 |  | > 100 |  | > 100 |  | > 100 |  | > 100 |  | > 100 |  | > 100 |  | > 100 |  | > 100 µM |  | > 100 |
| NC(N)=NC(N)=Nc1ccc(S(N)(=O)=O)cc1 |  | > 100 |  | > 100 |  | > 100 |  | > 100 |  | > 100 |  | > 100 |  | > 100 |  | > 100 |  | > 100 µM |  | > 100 |
| CN=C(N)NC |  | > 100 |  | > 100 |  | > 100 |  | > 100 |  | > 100 |  | > 100 |  | > 100 |  | > 100 |  | > 100 µM |  | > 100 |
| CC(C)Cc1ccc(C(C)/C=C2\CCC(CN3CCCCC3)C2=O)cc1 (stereo not given) |  | 66.1 |  | 19.6 |  | 9.05 |  | 15.9 |  | 27 |  | 2.9 |  | 5.51 |  | 31.1 |  | 34.9 µM |  | 33.7 |
| N.N.NCCCCCN.O=C([O-])CC(=O)[O-].O=C([O-])CC(=O)[O-].[Pt+4].[Pt+4] | 17.4 | > 100 | > 100 | > 100 | > 100 | > 100 | > 100 | > 100 | > 100 | > 100 | > 100 | > 100 | 34 | > 100 | > 100 | > 100 | > 100 | > 100 µM | > 100 | > 100 |
| CCC1(N)C(=O)OCc2c1cc1n(c2=O)Cc2cc3ccccc3nc2-1 (stereo not given) | 1.72 |  |  | > 100 | 15.6 | > 100 |  | > 100 | 48.8 | > 100 | 8.51 | > 100 | 1.96 |  | 24.5 | > 100 | 8.99 | 72 µM and > 100 µM |  | > 78.9 |
| CCN(CC)CCC(=O)N1C/C(=C/c2ccccc2)C(=O)/C(=C\c2ccccc2)C1 |  | 11.4 |  | 6.63 |  | 9.69 |  | 2.24 |  | 5.08 |  | 2.29 |  | 0.947 |  | 7.36 |  | 20.9 µM |  | 12.5 |
| Cn1cc2ccccc2c1-c1nc(F)nc(Nc2ccc(N)cc2)n1 |  | 31.5 |  | 95.5 |  | 28.5 |  | 57.3 |  | 30.1 |  | 28.9 |  | 67.5 |  | 39.2 |  | 33.8 µM |  | 42.9 |
